Values quoted from earlier work, collected in paper PMC9501129 (Pharmaceutics, 2022).
Read-outs that look alike come from different tables or passages of the source.

What was measured:
[1] = system: pregnant rabbits; conditions: CAB orally 0, 30, 500, or 2000 mg/kg/day, gestational day 7 to 19; cited from earlier work
[2] = system: pregnant rats; conditions: gestational day 0 to 17, cited from earlier work
[3] = cited from earlier work
[4] = system: simian/human immunodeficiency virus (SHIV); conditions: long-acting CAB; cited from earlier work
[5] = ex-vivo dually perfused human cotyledon; cited from earlier work
[6] = system: pregnant rats; conditions: cited from earlier work
[7] = cited from earlier work; remark: listed apart in the source
[8] = of 13 pregnant women living with HIV (4 oral CAB, 9 LA CAB)
[9] = ART-naïve, Switch study, ART-experienced, virologically suppressed, CAB/rilpivirin LA every 4 weeks, initial injection 600 mg IM
[10] = ART-naïve, Switch study, ART-experienced, virologically suppressed, CAB/rilpivirin LA every 4 weeks, oral 30 mg once daily
[11] = Healthy Participants (Females), 30 mg oral phase, 600 mg LA CAB every 12 weeks, 1st injection
[12] = Healthy Participants (Females), 30 mg oral phase, 600 mg LA CAB every 12 weeks, 2nd injection
[13] = Healthy Participants (Females), 30 mg oral phase, 600 mg LA CAB every 12 weeks, 3rd injection
[14] = Healthy Participants (Females), 30 mg oral phase, 600 mg LA CAB every 12 weeks, 4th injection
[15] = Healthy Participants (Females), 30 mg oral phase, 600 mg LA CAB every 12 weeks, 5th injection
[16] = Healthy Participants (Females), 30 mg oral phase, 800 mg LA CAB every 12 weeks, 1st injection
[17] = Healthy Participants (Females), 30 mg oral phase, 800 mg LA CAB every 12 weeks, 2nd injection
[18] = Healthy Participants (Females), 30 mg oral phase, 800 mg LA CAB every 12 weeks, 3rd injection
[19] = Healthy Participants (Males), 30 mg oral phase, 600 mg LA CAB every 12 weeks, 1st injection
[20] = Healthy Participants (Males), 30 mg oral phase, 600 mg LA CAB every 12 weeks, 2nd injection
[21] = Healthy Participants (Males), 30 mg oral phase, 600 mg LA CAB every 12 weeks, 3rd injection
[22] = Healthy Participants (Males), 30 mg oral phase, 600 mg LA CAB every 12 weeks, 4th injection
[23] = Healthy Participants (Males), 30 mg oral phase, 600 mg LA CAB every 12 weeks, 5th injection
[24] = Healthy Participants (Males), 30 mg oral phase, 800 mg LA CAB every 12 weeks, 1st injection, ref 28
[25] = Healthy Participants (Males), 30 mg oral phase, 800 mg LA CAB every 12 weeks, 1st injection, ref 29
[26] = Healthy Participants (Males), 30 mg oral phase, 800 mg LA CAB every 12 weeks, 2nd injection, ref 28
[27] = Healthy Participants (Males), 30 mg oral phase, 800 mg LA CAB every 12 weeks, 2nd injection, ref 29
[28] = Healthy Participants (Males), 30 mg oral phase, 800 mg LA CAB every 12 weeks, 3rd injection, ref 28
[29] = Healthy Participants (Males), 30 mg oral phase, 800 mg LA CAB every 12 weeks, 3rd injection, ref 29
[30] = Healthy Participants, oral lead-in followed by LA CAB IM or SC injection: 30 mg, with Rilpivirine LA IM monthly
[31] = Healthy Participants, oral lead-in followed by LA CAB injection: 200 mg IM, with Rilpivirine LA IM monthly
[32] = Healthy Participants, oral lead-in followed by LA CAB injection: 200 mg SC, with Rilpivirine LA IM monthly
[33] = Healthy Participants, oral lead-in followed by LA CAB injection: 400 mg IM, with Rilpivirine LA IM monthly
[34] = Healthy Participants, oral lead-in followed by LA CAB injection: 800 mg IM, with Rilpivirine LA IM monthly
[35] = Healthy Participants, repeat oral dose 5 mg
[36] = Healthy Participants, repeat oral dose 10 mg
[37] = Healthy Participants, repeat oral dose 25 mg
[38] = Healthy Participants, single oral dose 5 mg
[39] = Healthy Participants, single oral dose 10 mg
[40] = Healthy Participants, single oral dose 25 mg
[41] = Healthy Participants, single oral dose 50 mg
[42] = Participants with HIV, repeat oral dose 30 mg
[43] = Participants with HIV, single oral dose 5 mg

Compound: C[C@H]1CO[C@@H]2Cn3cc(C(=O)NCc4ccc(F)cc4F)c(=O)c(O)c3C(=O)N12 [CAB, cabotegravir]
- Fetal toxicities [1]: no drug-related fetal toxicities
- Fetal viability and fetal malformations ([2]; CAB orally 0, 0.5, 5, or 1000 mg/kg/day): no effects on fetal viability and no drug-related fetal malformations
- Fetal body weight ([2]; CAB orally 1000 mg/kg/day): minor decrease in fetal body weight
- Birth defects ([3]; 13 pregnant women living with HIV (4 oral CAB, 9 LA CAB)): No cases of birth defects were reported
- Women with live births [3, 8]: Four
- Women with miscarriage within the first nine weeks of gestation [3, 8]: four
- Efficacy against intrarectal SHIV [4]: protective efficacy
- Efficacy against repeated high-dose intravaginal SHIV [4]: protective efficacy
- Concentration in the fetal compartment [5]: 48 ng/mL
- Concentration in the maternal compartment [5]: 550 ng/mL
- Maternal-to-fetal ratio [5]: 10%
- Placental transfer [5]: low placental transfer
- Reproductive toxicity findings ([6]; CAB orally 1000 mg/kg/day, gestational day 6 to lactation day 21): delayed onset of parturition, increased number of stillbirths, and increased number of neonatal deaths at lactation day 4
- CAB exposure relative to the recommended human dose ([6]; rats, 1000 mg/kg/day): 28 times
- Human Plasma Levels Cmax [7, 9]: 8000 ng/mL
- Human Plasma Levels Cmin [7, 9]: 1500 ng/mL
- Human Plasma Levels Cmin ([7]; ART-naïve, Switch study, ART-experienced, virologically suppressed, CAB/rilpivirin LA every 4 weeks, monthly injection 400 mg IM): 2800 ng/mL
- Human Plasma Levels Cmax [7, 10]: 8000 ng/mL
- Human Plasma Levels Cmin [7, 10]: 4600 ng/mL
- Human Plasma Levels Cmax [7, 11]: 1580 ng/mL
- Human Plasma Levels Cmin [7, 11]: 1330 ng/mL
- Human Plasma Levels Cmax [7, 12]: 2960 ng/mL
- Human Plasma Levels Cmin [7, 12]: 1820 ng/mL
- Human Plasma Levels Cmax [7, 13]: 3460 ng/mL
- Human Plasma Levels Cmin [7, 13]: 2040 ng/mL
- Human Plasma Levels Cmax [7, 14]: 3330 ng/mL
- Human Plasma Levels Cmin [7, 14]: 2060 ng/mL
- Human Plasma Levels Cmax [7, 15]: 3660 ng/mL
- Human Plasma Levels Cmin [7, 15]: 2030 ng/mL
- Human Plasma Levels Cmax [7, 16]: 1890 ng/mL
- Human Plasma Levels Cmin [7, 16]: 950 ng/mL
- Human Plasma Levels Cmax [7, 17]: 2290 ng/mL
- Human Plasma Levels Cmin [7, 17]: 1350 ng/mL
- Human Plasma Levels Cmax [7, 18]: 3010 ng/mL
- Human Plasma Levels Cmin [7, 18]: 1650 ng/mL
- Human Plasma Levels Cmax [7, 19]: 2510 ng/mL
- Human Plasma Levels Cmin [7, 19]: 1790 ng/mL
- Human Plasma Levels Cmax [7, 20]: 3900 ng/mL
- Human Plasma Levels Cmin [7, 20]: 1290 ng/mL
- Human Plasma Levels Cmax [7, 21]: 2960 ng/mL
- Human Plasma Levels Cmin [7, 21]: 1110 ng/mL
- Human Plasma Levels Cmax [7, 22]: 2960 ng/mL
- Human Plasma Levels Cmin [7, 22]: 1460 ng/mL
- Human Plasma Levels Cmax [7, 23]: 3820 ng/mL
- Human Plasma Levels Cmin [7, 23]: 1680 ng/mL
- Human Plasma Levels Cmax [7, 24]: 4260 ng/mL
- Human Plasma Levels Cmin [7, 24]: 302 ng/mL
- Human Plasma Levels Cmax [7, 25]: 2670 ng/mL
- Human Plasma Levels Cmin [7, 25]: 490 ng/mL
- Human Plasma Levels Cmax [7, 26]: 5220 ng/mL
- Human Plasma Levels Cmin [7, 26]: 331 ng/mL
- Human Plasma Levels Cmax [7, 27]: 2570 ng/mL
- Human Plasma Levels Cmin [7, 27]: 780 ng/mL
- Human Plasma Levels Cmax [7, 28]: 4910 ng/mL
- Human Plasma Levels Cmin [7, 28]: 387 ng/mL
- Human Plasma Levels Cmax [7, 29]: 3390 ng/mL
- Human Plasma Levels Cmin [7, 29]: 820 ng/mL
- Human Plasma Levels Cmax ([7]; Healthy Participants, IM (gluteal) injection 100 mg IM): 200 ng/mL
- Human Plasma Levels Cmax ([7]; Healthy Participants, IM (gluteal) injection 200 mg IM): 300 ng/mL
- Human Plasma Levels Cmax ([7]; Healthy Participants, IM (gluteal) injection 400 mg (200 mg × 2)): 1400 ng/mL
- Human Plasma Levels Cmax ([7]; Healthy Participants, IM (gluteal) injection 400 mg IM): 700 ng/mL
- Human Plasma Levels Cmax ([7]; Healthy Participants, IM (gluteal) injection 800 mg IM (400 mg × 2)): 3300 ng/mL
- Human Plasma Levels Cmax ([7]; Healthy Participants, SC (abdominal) injection 100 mg): 200 ng/mL
- Human Plasma Levels Cmax ([7]; Healthy Participants, SC (abdominal) injection 200 mg): 500 ng/mL
- Human Plasma Levels Cmax ([7]; Healthy Participants, SC (abdominal) injection 400 mg (200 mg × 2)): 900 ng/mL
- Human Plasma Levels Cmax [7, 30]: 8300 ng/mL
- Human Plasma Levels Cmin [7, 30]: 4900 ng/mL
- Human Plasma Levels Cmax [7, 31]: 2200 ng/mL
- Human Plasma Levels Cmin [7, 31]: 1610 ng/mL
- Human Plasma Levels Cmax [7, 32]: 2100 ng/mL
- Human Plasma Levels Cmin [7, 32]: 1660 ng/mL
- Human Plasma Levels Cmax [7, 33]: 4400 ng/mL
- Human Plasma Levels Cmin [7, 33]: 3270 ng/mL
- Human Plasma Levels Cmax [7, 34]: 3300 ng/mL
- Human Plasma Levels Cmin [7, 34]: 1100 ng/mL
- Human Plasma Levels Cmax [7, 35]: 2080 ng/mL
- Human Plasma Levels Cmin [7, 35]: 1060 ng/mL
- Human Plasma Levels Cmax [7, 36]: 4290 ng/mL
- Human Plasma Levels Cmin [7, 36]: 2390 ng/mL
- Human Plasma Levels Cmax [7, 37]: 9470 ng/mL
- Human Plasma Levels Cmin [7, 37]: 5400 ng/mL
- Human Plasma Levels Cmax [7, 38]: 1150 ng/mL
- Human Plasma Levels Cmin [7, 38]: 420 ng/mL
- Human Plasma Levels Cmax [7, 39]: 2150 ng/mL
- Human Plasma Levels Cmin [7, 39]: 830 ng/mL
- Human Plasma Levels Cmax [7, 40]: 4380 ng/mL
- Human Plasma Levels Cmin [7, 40]: 1930 ng/mL
- Human Plasma Levels Cmax [7, 41]: 8570 ng/mL
- Human Plasma Levels Cmin [7, 41]: 3820 ng/mL
- Human Plasma Levels Cmin ([7]; Participants with HIV, CAB/rilpivirine LA injectable, repeat-dose every 4 week 400 mg): 2740 ng/mL
- Human Plasma Levels Cmin ([7]; Participants with HIV, CAB/rilpivirine LA injectable, repeat-dose every 8 week 600 mg): 1670 ng/mL
- Human Plasma Levels Cmax ([7]; Participants with HIV, repeat oral dose 5 mg): 1020 ng/mL
- Human Plasma Levels Cmax [7, 42]: 6370 ng/mL
- Human Plasma Levels Cmin [7, 42]: 3280 ng/mL
- Human Plasma Levels Cmax [7, 43]: 520 ng/mL
- Human Plasma Levels Cmin [7, 43]: 230 ng/mL
- Human Plasma Levels Cmin ([7]; Participants with HIV, single oral dose 30 mg (Ctau)): 1250 ng/mL
- Human Plasma Levels Cmax ([7]; Participants with HIV, single oral dose 30 mg): 2840 ng/mL
